Experimental data: patent publication US20180206495A1, “SUBSTITUTED ARYL AND HETEROARYL CARBOXYLIC ACID HYDRAZIDES OR SALTS THEREOF AND USE THEREOF TO INCREASE STRESS TOLERANCE IN PLANTS” (BAYER CROPSCIENCE AKTIENGESELLSCHAFT, priority 2015, published 2018)

system: Zea mays; test: In vivo analyses Part A: drought stress, spray application, visual damage scoring, Zea mays; conditions: dosage 250 g/ha
Description: (§1) Seeds of monocotyledonous and dicotyledonous crop plants were sown in sandy loam in wood-fiber or plastic pots, covered with soil or sand and cultivated in a greenhouse under good growth conditions. The trial plants were treated at the early leaf stage (BBCH10-BBCH13). To assure uniform water supply before commencement of stress, the potted plants were supplied with water by dam irrigation prior to substance application. The inventive compounds formulated in the form of wettable powders (WP) were sprayed onto the green parts of the plants as an aqueous suspension at an equivalent water application rate of 600 l/ha with addition of 0.2% wetting agent (e.g. agrotin). Substance application was followed immediately by stress treatment of the plants. For this purpose, the wood-fiber pots were transferred in plastic inserts in order to prevent them from subsequently drying out too quickly. Drought stress was induced by gradual drying out under the following conditions: “Day”: 14 hours with illumination at ˜26-30° C. “Night”: 10 hours without illumination at ˜18-20° C. The duration of the respective stress phases was guided mainly by the condition of the stressed control plants. It was ended (by re-irrigating and transfer to a greenhouse with good growth conditions) as soon as irreversible damage was observed on the stressed control plants. The end of the stress phase was followed by an about 4-7-day recovery phase, during which the plants were once again kept under good growth conditions in a greenhouse. The duration of the recovery phase was guided mainly by when the trial plants had attained a state which enabled visual scoring of potential effects, and is therefore variable. Once this juncture was reached, the intensities of damage were scored visually in comparison to untreated, unstressed controls of the same age. The damage intensity was at first assessed in per cent. These values were then used to calculate the efficacy of the test compounds by the following formula: [formula] EF: Efficacy DIs: Damage intensity of the stressed control plants DIt: Damage intensity of the stressed plants treated with test compound The values reported in tables A-1 to A-3 below are mean values from at least one trial with at least two repeats, showing the effects of selected compounds of the general formula (I) under drought stress on various crop plants.

Structure (SMILES) | EF [%] (ZEAMX)
CN(C)N(Cc1ccc(Cl)cc1)C(=O)c1ccc(Cl)cc1 [A9-3] | >5%
CN(C)N(CCc1ccc(C(C)(C)C)cc1)C(=O)c1cc(Cl)ccc1Cl [A7-639] | >5%

system: Triticum aestivum; test: In vivo analyses Part B: drought stress, spray application, appearance vs stressed control in categories, Triticum aestivum; set-up: key: 0: no positive effect; +: slight positive effect; ++: clear positive effect; +++: strong positive effect; conditions: dosage 25 g/ha
Description: (§2) Seeds of monocotyledonous and dicotyledonous crop plants were sown in sandy loam in plastic pots, covered with soil or sand and cultivated in a greenhouse under good growth conditions. The test plants are treated at the early leaf stage (BBCH10-BBCH13). To assure uniform water supply before commencement of stress, the potted plants were supplied with water by dam irrigation prior to substance application. The inventive compounds were first formulated as wettable powders (WP) or dissolved in a solvent mixture. The further dilution was effected with water supplemented with 0.2% wetting agent (e.g. agrotin). The finished spray liquor was sprayed onto the green parts of the plant at an equivalent water application rate of 600 l/ha. Substance application was followed immediately by stress treatment of the plants. Drought stress was induced by gradual drying out under the following conditions: “Day”: 14 hours with illumination at ˜26-30° C. “Night”: 10 hours without illumination at ˜18-20° C. The duration of the respective stress phases was guided mainly by the condition of the stressed control plants. It was ended (by re-irrigating and transfer to a greenhouse with good growth conditions) as soon as irreversible damage was observed on the stressed control plants. The end of the stress phase was followed by an about 4-7-day recovery phase, during which the plants were once again kept under good growth conditions in a greenhouse. The duration of the recovery phase was guided mainly by when the trial plants had attained a state which enabled visual scoring of potential effects, and was therefore variable. Once this juncture had been reached, the appearance of the plants treated with test substances was recorded in comparison to the stressed control plants by the following categories: • 0 no positive effect • + slight positive effect • ++ clear positive effect • +++ strong positive effect In order to rule out any influence on the effects observed by any fungicidal or insecticidal action of the test compounds, it was additionally ensured that the tests proceeded without fungal infection or insect infestation. The values reported in tables B-1 and B-2 below are mean values of the results from at least three repeats. Effects of selected compounds of the general formula (I) under drought stress according to the following tables B-1 and B-2: […]

Structure (SMILES) | Effect (TRZAS)
CN(C)N(Cc1c(Cl)cc(C(F)(F)F)c(F)c1F)C(=O)c1ccc(F)cc1C(F)(F)F [A14-608] | +

same assay, conditions: dosage 100 g/ha

Structure (SMILES) | Effect (TRZAS)
CN(C)N(Cc1ccccc1C#N)C(=O)c1ccnnc1 [G1-61] | +

same assay, conditions: dosage 250 g/ha

Structure (SMILES) | Effect (TRZAS)
CN(C)N(Cc1ccc(Cl)cc1Cl)C(=O)c1ccccc1I [A36-5] | +
CN(C)N(Cc1ccc(F)cc1F)C(=O)c1cnccc1C(F)(F)F [B1-15] | +
CN(C)N(Cc1ccc(Cl)nc1)C(=O)c1ccc(C(F)F)nc1 [B6-94] | +
CN(C)N(Cc1cccc(Cl)c1)C(=O)c1ccccc1Cl [A10-2] | +

system: Brassica napus; test: In vivo analyses Part A: drought stress, spray application, visual damage scoring, Brassica napus; conditions: dosage 2.5 g/ha
Description: as §1

Structure (SMILES) | EF [%] (BRSNS)
COc1ccccc1C(=O)N(Cc1ccccc1Cl)N(C)C [A8-1] | >5%
CN(C)N(Cc1cccc(C#N)c1)C(=O)c1ccncc1 [C1-62] | >5%
COc1c(C)cnc(CN(C(=O)c2ccccc2C(F)(F)F)N(C)C)c1C [A1-37] | >5%

same assay, conditions: dosage 25 g/ha

Structure (SMILES) | EF [%] (BRSNS)
CN(C)N(Cc1ccc(Cl)cc1Cl)C(=O)c1ccc(Cl)cc1Cl [A12-5] | >5%
CN(C)N(Cc1ccccc1C#N)C(=O)c1ccccc1Cl [A10-61] | >5%
CN(C)N(Cc1ccccc1F)C(=O)c1cc(Cl)ccc1Cl [A7-11] | >5%
COc1c(C)cnc(CN(C(=O)c2ccc(Cl)cc2Cl)N(C)C)c1C [A12-37] | >5%
CN(C)N(Cc1ncc(C(F)(F)F)cc1Cl)C(=O)c1ccncc1C(F)(F)F [C2-36] | >5%
CN(C)N(Cc1ccccn1)C(=O)c1ccccc1C(F)(F)F [A1-21] | >5%
CN(C)N(Cc1ccccc1Cl)C(=O)c1cc(Cl)ccc1Cl [A7-1] | >5%
Cc1c(OCC(F)(F)F)ccnc1CN(C(=O)c1cnccc1C(F)(F)F)N(C)C [B1-144] | >5%
CN(C)N(Cc1cc(C(F)(F)F)ccc1Cl)C(=O)c1ccc(Cl)cc1Cl [A12-86] | >5%
CN(C)N(Cc1ccc2ccccc2n1)C(=O)c1cc(Cl)ccc1Cl [A7-122] | >5%
CN(C)N(CCc1ccc(C(C)(C)C)cc1)C(=O)c1cc(Cl)ccc1Cl [A7-639] | >5%

same assay, conditions: dosage 250 g/ha

Structure (SMILES) | EF [%] (BRSNS)
CN(C)N(CCc1ccc(Cl)cc1)C(=O)c1ccc(Cl)cc1 [A9-614] | >5%
CN(C)N(Cc1c(Cl)cccc1Cl)C(=O)c1ccccc1Cl [A10-7] | >5%
CN(C)N(Cc1ccccc1C#N)C(=O)c1ccncc1 [C1-61] | >5%
CN(C)N(Cc1ccc(Cl)cc1)C(=O)c1ccc(Cl)cc1 [A9-3] | >5%

system: Brassica napus; test: In vivo analyses Part B: drought stress, spray application, appearance vs stressed control in categories, Brassica napus; set-up: key: 0: no positive effect; +: slight positive effect; ++: clear positive effect; +++: strong positive effect; conditions: dosage 25 g/ha
Description: as §2

Structure (SMILES) | Effect (BRSNS)
CN(C)N(Cc1cccc(Cl)c1)C(=O)c1ccccc1Cl [A10-2] | ++
CN(C)N(Cc1c(Cl)cc(C(F)(F)F)c(F)c1F)C(=O)c1ccc(F)cc1C(F)(F)F [A14-608] | +

same assay, conditions: dosage 100 g/ha

Structure (SMILES) | Effect (BRSNS)
CN(C)N(Cc1ccccc1C#N)C(=O)c1ccnnc1 [G1-61] | +

same assay, conditions: dosage 250 g/ha

Structure (SMILES) | Effect (BRSNS)
CN(C)N(Cc1ccc(Cl)cc1Cl)C(=O)c1ccccc1I [A36-5] | ++
CN(C)N(Cc1ccc(F)cc1F)C(=O)c1cnccc1C(F)(F)F [B1-15] | +++
CN(C)N(Cc1ccc(Cl)nc1)C(=O)c1ccc(C(F)F)nc1 [B6-94] | +

system: Triticum aestivum; test: In vivo analyses Part A: drought stress, spray application, visual damage scoring, Triticum aestivum; conditions: dosage 25 g/ha
Description: as §1

Structure (SMILES) | EF [%] (TRZAS)
COc1c(C)cnc(CN(C(=O)c2ccc(Cl)cc2Cl)N(C)C)c1C [A12-37] | >5%
Cc1c(OCC(F)(F)F)ccnc1CN(C(=O)c1cnccc1C(F)(F)F)N(C)C [B1-144] | >5%

same assay, conditions: dosage 250 g/ha

Structure (SMILES) | EF [%] (TRZAS)
COc1cc(OC)nc(CN(C(=O)c2ccccc2Cl)N(C)C)n1 [A10-30] | >5%
Cc1c(OCC(F)(F)F)ccnc1CN(C(=O)c1ccccc1Cl)N(C)C [A10-144] | >5%
COc1c(C)cnc(CN(C(=O)c2ccccc2C(F)(F)F)N(C)C)c1C [A1-37] | >5%
